Values quoted from earlier work as cited in patent publication US20050255150A1 (priority 2004, published 2005).

Conditions: in vivo

**Q.** With COc1ccc2c3c1O[C@H]1[C@@H](O)C=C[C@H]4[C@@H](C2)N(C)CC[C@@]341 [Codeine] as the compound, how does the “Intramuscular Administration equivalent of 10 mg of intramuscular morphine in 24 hours” value (“Intramuscular Administration equivalent” below) read?
**A.** Its value is 130 mg.

**Q.** What about the “Oral Administration equivalent of 10 mg morphine in 24 hours” value (po) of the same compound?
**A.** The value was 200 mg.

**Q.** For CCC(=O)C(CC(C)N(C)C)(c1ccccc1)c1ccccc1 (centres unmarked) [Methadone], which “Intramuscular Administration equivalent” value is on record?
**A.** The value was 10 mg.

**Q.** And the “Oral Administration equivalent of 10 mg morphine in 24 hours” value (po)?
**A.** Its value is 20 mg.

**Q.** What does the source list for CN1CC[C@]23c4c5ccc(O)c4O[C@H]2[C@@H](O)C=C[C@H]3[C@H]1C5 [Morphine]?
**A.** Intramuscular Administration equivalent of 10 mg of intramuscular morphine in 24 hours: 10 mg; Oral Administration equivalent of 10 mg morphine in 24 hours (po): 60 (30 mg); Oral Administration equivalent of 10 mg morphine in 24 hours (value in brackets) (po): 60 (30 mg)

**Q.** What does the source list for COc1ccc2c3c1O[C@H]1C(=O)CC[C@@]4(O)[C@@H](C2)N(C)CC[C@]314 [Oxycodone]?
**A.** Intramuscular Administration equivalent of 10 mg of intramuscular morphine in 24 hours: 15 mg; Oral Administration equivalent of 10 mg morphine in 24 hours (po): 30 mg

**Q.** Which results are given for CN1CC[C@]23c4c5ccc(O)c4O[C@H]2C(=O)CC[C@@]3(O)[C@H]1C5 [Oxymorphone]?
**A.** Intramuscular Administration equivalent of 10 mg of intramuscular morphine in 24 hours: 1 mg; Oral Administration equivalent of 10 mg morphine in 24 hours (po): 10 mg

**Q.** For CC(=O)Oc1ccc2c3c1O[C@H]1[C@@H](OC(C)=O)C=C[C@H]4[C@@H](C2)N(C)CC[C@@]341 [Heroin], which “Intramuscular Administration equivalent” value is on record?
**A.** Its value is 5 mg.

**Q.** What about the “Oral Administration equivalent of 10 mg morphine in 24 hours” value (po) of the same compound?
**A.** The value was 60 mg.

**Q.** With CCOC(=O)C1(c2ccccc2)CCN(C)CC1 [Meperidine] as the compound, how does the “Intramuscular Administration equivalent” value read?
**A.** Its value is 75 mg.
